These results are taken from ChEMBL document CHEMBL4308904 (Bioorg Med Chem, 2019).

Active and inactive are the calls of the source. The calls are words filed in the database; no cut-off is given here.

Assay [1] deals with T1, Lysine-specific histone demethylase 1A (Homo sapiens, UniProt O60341).
Description: Inhibition of LSD1 (unknown origin) by fluorescence assay
The target of assay [2] is T1, Lysine-specific histone demethylase 1A. Description: Inhibition of LSD1 (unknown origin).
The test system of assay [3] is MDA-MB-231. Description: Induction of apoptosis in human MDA-MB-231 cells assessed as early apoptosis cells level at 8 uM after 24 hrs by Annexin V-FITC/propidium iodide staining-based flow cytometric analysis relative to control. Format: functional. (In general: In flow cytometry, cells or beads pass a laser one at a time.)
Assay [4] concerns MDA-MB-231. Put plainly: Induction of apoptosis in human MDA-MB-231 cells transfected with LSD1 siRNA assessed as necrosis cells level at 8 uM after 24 hrs by Annexin V-FITC/propidium iodide staining-based flow cytometric analysis relative to control. Format: functional.
The subject of assay [5] is MDA-MB-231. Description: Induction of apoptosis in human MDA-MB-231 cells transfected with LSD1 siRNA assessed as chromatinorrhexis at 8 uM after 24 hrs by Hoechst 33342 staining-based confocal laser scanning microscopic analysis. Format: functional, cell-based.
In assay [6] the test system is MDA-MB-231. Description: Induction of apoptosis in human MDA-MB-231 cells transfected with LSD1 siRNA assessed as increase in cleaved PARP level at 8 uM after 24 hrs by Western blot analysis. Format: functional, cell-based. A general note: In western blotting, separated proteins are transferred to a membrane and probed.
The subject of assay [7] is MDA-MB-231. Put plainly: Induction of apoptosis in human MDA-MB-231 cells transfected with LSD1 siRNA assessed as increase in cleaved caspase-3 level at 8 uM after 24 hrs by Western blot analysis. Format: functional, cell-based.
The test system of assay [8] is MDA-MB-231. Put plainly: Induction of apoptosis in human MDA-MB-231 cells transfected with LSD1 siRNA assessed as increase in cleaved caspase-9 level at 8 uM after 24 hrs by Western blot analysis. Format: functional, cell-based.
Assay [9] relates to MDA-MB-231. Put plainly: Induction of apoptosis in human MDA-MB-231 cells assessed as increase in BAX/Bcl-2 protein ratio at 8 uM after 24 hrs by Western blot analysis. Format: functional, cell-based.
Assay [10] concerns MDA-MB-231. Description: Induction of apoptosis in human MDA-MB-231 cells transfected with LSD1 siRNA assessed as loss of mitochondrial membrane potential at 8 uM after 24 hrs by JC-1 staining-based flow cytometric analysis. Format: functional, cell-based.
Assay [11] concerns MDA-MB-231. Put plainly: Antiproliferative activity against human MDA-MB-231 cells transfected with NC siRNA after 24 hrs by MTT assay. Format: functional, cell-based. (In general: Tetrazolium dyes change colour on reduction, which living cells bring about.)
Assay [12] deals with MDA-MB-231. Put plainly: Induction of apoptosis in human MDA-MB-231 cells transfected with LSD1 siRNA assessed as early apoptosis cells level at 8 uM after 24 hrs by Annexin V-FITC/propidium iodide staining-based flow cytometric analysis relative to control. Format: functional.
In assay [13] the test system is MDA-MB-231. Description: Induction of apoptosis in human MDA-MB-231 cells transfected with LSD1 siRNA assessed as late apoptosis level at 8 uM after 24 hrs by Annexin V-FITC/propidium iodide staining-based flow cytometric analysis relative to control. Format: functional.
The test system of assay [14] is MDA-MB-231. Description: Induction of apoptosis in human MDA-MB-231 cells assessed as necrosis cells level at 8 uM after 24 hrs by Annexin V-FITC/propidium iodide staining-based flow cytometric analysis relative to control. Format: functional.
Assay [15] concerns the target Lysine-specific demethylase 5A (Homo sapiens) (UniProt P29375). Put plainly: Inhibition of JARID1 in human MDA-MB-231 cells assessed as effect on H3K4me3 methylation by Western blot analysis. Format: cell-based.
Assay [16] deals with T1, Lysine-specific histone demethylase 1A. Description: Competitive inhibition of LSD1 (unknown origin) using H3Kme2 as substrate by Lineweaver-Burk plot analysis.
The target is the same in assay [17]. Put plainly: Inhibition of LSD1 in human MDA-MB-231 cells assessed as increase in H3K4me1 methylation by Western blot analysis. Format: cell-based.
The test system of assay [18] is MDA-MB-231. Description: Antiproliferative activity against human MDA-MB-231 cells assessed as reduction in EdU incorporation at 8 uM after 24 hrs by Hoechst 33342 staining-based confocal laser scanning microscopic analysis. Format: functional, cell-based.
For assay [19], the system named is MDA-MB-231. Description: Induction of apoptosis in human MDA-MB-231 cells transfected with LSD1 siRNA assessed as increase in BAX/Bcl-2 protein ratio at 8 uM after 24 hrs by Western blot analysis. Format: functional, cell-based.
The test system of assay [20] is MDA-MB-231. Put plainly: Antiproliferative activity against human MDA-MB-231 cells transfected with LSD1 siRNA after 24 hrs by MTT assay. Format: functional, cell-based.
The test system of assay [21] is MDA-MB-231. Description: Induction of apoptosis in human MDA-MB-231 cells assessed as viable cells level at 8 uM after 24 hrs by Annexin V-FITC/propidium iodide staining-based flow cytometric analysis relative to control. Format: functional.
In assay [22] the target is T1, Lysine-specific histone demethylase 1A. Put plainly: Inhibition of LSD1 in human MDA-MB-231 cells assessed as increase in H3K4me2 methylation by Western blot analysis. Format: cell-based.
In assay [23] the test system is MDA-MB-231. Put plainly: Antiproliferative activity against human MDA-MB-231 cells transfected with LSD1 siRNA assessed as reduction in EdU incorporation at 8 uM after 24 hrs by Hoechst 33342 staining-based confocal laser scanning microscopic analysis. Format: functional, cell-based.
For assay [24], the target named is T1, Lysine-specific histone demethylase 1A. Put plainly: Inhibition of LSD1 in human MDA-MB-231 cells assessed as increase in H3K9me2 methylation by Western blot analysis. Format: cell-based.
The test system of assay [25] is MDA-MB-231. Description: Effect on LSD1 protein levels in human MDA-MB-231 cells up to 8 uM by Western blot analysis. Format: functional, cell-based.
Assay [26] deals with MDA-MB-231. Put plainly: Induction of apoptosis in human MDA-MB-231 cells assessed as late apoptosis level at 8 uM after 24 hrs by Annexin V-FITC/propidium iodide staining-based flow cytometric analysis relative to control. Format: functional.
For assay [27], the system named is MDA-MB-231. Put plainly: Induction of apoptosis in human MDA-MB-231 cells transfected with LSD1 siRNA assessed as chromatin condensation at 8 uM after 24 hrs by Hoechst 33342 staining-based confocal laser scanning microscopic analysis. Format: functional, cell-based.
The subject of assay [28] is MDA-MB-231. Description: Induction of apoptosis in human MDA-MB-231 cells transfected with LSD1 siRNA assessed as viable cells level at 8 uM after 24 hrs by Annexin V-FITC/propidium iodide staining-based flow cytometric analysis relative to control. Format: functional.
Assay [29] relates to MDA-MB-231. Put plainly: Induction of apoptosis in human MDA-MB-231 cells transfected with LSD1 siRNA assessed as increase in cleaved caspase-7 level at 8 uM after 24 hrs by Western blot analysis. Format: functional, cell-based.
Assay [30] has as its system MDA-MB-231. Put plainly: Induction of apoptosis in human MDA-MB-231 cells assessed as loss of mitochondrial membrane potential at 8 uM after 24 hrs by JC-1 staining-based flow cytometric analysis. Format: functional, cell-based.
The test system of assay [31] is MDA-MB-231. Description: Inhibition of colony formation in human MDA-MB-231 cells transfected with LSD1 siRNA. Format: functional, cell-based.

Lysine-specific demethylase 5A (Homo sapiens), sequence (P29375 whole entry): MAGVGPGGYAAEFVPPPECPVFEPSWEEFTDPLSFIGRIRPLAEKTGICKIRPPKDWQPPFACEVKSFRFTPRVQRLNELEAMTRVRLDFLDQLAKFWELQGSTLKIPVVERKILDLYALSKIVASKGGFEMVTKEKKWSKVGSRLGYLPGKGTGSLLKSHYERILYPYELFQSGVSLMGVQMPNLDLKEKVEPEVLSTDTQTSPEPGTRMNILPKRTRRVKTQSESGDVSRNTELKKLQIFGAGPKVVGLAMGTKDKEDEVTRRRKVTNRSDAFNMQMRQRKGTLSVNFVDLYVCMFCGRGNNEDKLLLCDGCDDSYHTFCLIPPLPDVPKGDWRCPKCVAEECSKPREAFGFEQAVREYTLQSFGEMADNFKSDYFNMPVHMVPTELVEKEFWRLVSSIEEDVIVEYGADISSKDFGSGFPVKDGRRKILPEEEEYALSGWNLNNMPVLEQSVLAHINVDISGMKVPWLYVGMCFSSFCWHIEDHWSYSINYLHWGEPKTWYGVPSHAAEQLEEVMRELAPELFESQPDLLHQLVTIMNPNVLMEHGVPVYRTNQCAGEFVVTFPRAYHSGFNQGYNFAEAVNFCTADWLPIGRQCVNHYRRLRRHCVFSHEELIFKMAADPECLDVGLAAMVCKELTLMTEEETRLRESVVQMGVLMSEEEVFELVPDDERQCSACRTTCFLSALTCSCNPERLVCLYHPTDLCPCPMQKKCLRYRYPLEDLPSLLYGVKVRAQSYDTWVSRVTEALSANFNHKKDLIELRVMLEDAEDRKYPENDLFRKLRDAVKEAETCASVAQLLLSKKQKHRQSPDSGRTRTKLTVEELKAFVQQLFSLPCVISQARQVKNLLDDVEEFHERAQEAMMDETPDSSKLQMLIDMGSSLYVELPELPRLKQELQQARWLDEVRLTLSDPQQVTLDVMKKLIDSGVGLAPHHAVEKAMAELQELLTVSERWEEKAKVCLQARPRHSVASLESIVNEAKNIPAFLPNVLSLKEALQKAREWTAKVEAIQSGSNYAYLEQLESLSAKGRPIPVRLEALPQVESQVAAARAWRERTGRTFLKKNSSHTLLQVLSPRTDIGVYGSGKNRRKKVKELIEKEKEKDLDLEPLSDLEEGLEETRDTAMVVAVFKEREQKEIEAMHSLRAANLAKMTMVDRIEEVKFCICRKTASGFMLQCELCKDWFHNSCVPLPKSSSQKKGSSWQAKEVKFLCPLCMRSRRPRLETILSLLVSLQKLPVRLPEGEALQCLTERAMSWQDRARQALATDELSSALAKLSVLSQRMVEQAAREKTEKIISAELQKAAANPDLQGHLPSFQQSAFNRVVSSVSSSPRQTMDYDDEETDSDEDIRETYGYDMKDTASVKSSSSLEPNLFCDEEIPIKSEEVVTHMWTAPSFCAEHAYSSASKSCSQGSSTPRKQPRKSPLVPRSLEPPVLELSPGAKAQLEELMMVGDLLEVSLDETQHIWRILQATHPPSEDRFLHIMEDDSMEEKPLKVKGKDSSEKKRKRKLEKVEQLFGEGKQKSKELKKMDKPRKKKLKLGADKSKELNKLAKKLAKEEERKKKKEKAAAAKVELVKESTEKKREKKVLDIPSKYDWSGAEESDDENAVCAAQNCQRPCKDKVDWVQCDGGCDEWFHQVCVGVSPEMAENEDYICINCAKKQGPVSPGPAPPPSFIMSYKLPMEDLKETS

As a reminder, the IC50 is the concentration that gives 50% inhibition. A low value points to greater potency. Turning to `COc1ccc(-c2oc3c(CC=C(C)C)c(O)cc(O)c3c(=O)c2O[C@@H]2O[C@@H](C)[C@H](O)[C@@H](O)[C@H]2O)cc1`, the IC50 in assay [1] is 16.7 µM.

Compound `O=c1cc(-c2ccccc2)oc2cc(O)c(O)c(O)c12` [BAICALEIN] returned an IC50 in [2] of 12.5 µM.

Usually Ki stands for the equilibrium dissociation constant of an inhibitor or competing ligand from its target. In the case of `O=c1c(O[C@@H]2O[C@H](CO)[C@@H](O)[C@H](O)[C@H]2O)c(-c2ccc(O)c(O)c2)oc2cc(O)cc(O)c12` [ISOQUERCETIN], the Activity came out at 1% with MDA-MB-231 [3]; 1.5% in the assay on MDA-MB-231 [4]; 3.5% in the assay with MDA-MB-231 [12]; 38.9% with MDA-MB-231 [13]; 2.6% with MDA-MB-231 [14]; 82.6% with MDA-MB-231 [21]. In addition, the Activity in the assay with MDA-MB-231 [26] is listed as 10.7%; in the assay on MDA-MB-231 [28] it was 56.1%. Further, the result in the assay with MDA-MB-231 [5], with MDA-MB-231 [6], with MDA-MB-231 [7], in the assay with MDA-MB-231 [8], with MDA-MB-231 [9] and in the assay with MDA-MB-231 [10] was Active. For the same compound, the result in the assay with MDA-MB-231 [11], in the assay on MDA-MB-231 [18], in the assay with MDA-MB-231 [19], in the assay with MDA-MB-231 [20], in the assay with MDA-MB-231 [23] and with MDA-MB-231 [27] was Active. For the same compound, the result with MDA-MB-231 [29] and in the assay on MDA-MB-231 [30] was Active. In addition, the half-inhibitory concentration (IC50) in [1] was determined as 0.95 µM. Moreover, the inhibition entry in [15] was “inactive”. Further, in [16], the Ki was 1 µM. Also, the inhibition result (in [17]; in [22]; in [24]; in the assay with MDA-MB-231 [31]) was “Active” each time. Moreover, the result in the assay on MDA-MB-231 [25] was inactive.

As to `COc1c(O[C@@H]2O[C@H](C(=O)O)[C@@H](O)[C@H](O)[C@H]2O)cc(O)c2c(=O)cc(-c3ccccc3)oc12`, in [2], the 50% inhibitory concentration (IC50) was determined as 2.98 µM.

In turn, `O=c1c(O)c(-c2ccc(O)c(O)c2)oc2cc(O)cc(O)c12` [QUERCETIN] gave a half-maximal inhibitory concentration (IC50) in assay [1] of 1.26 µM.

For `COc1ccc([C@@H]2CC(=O)c3c(O)cc(O)cc3O2)cc1O` [HESPERETIN], in [1], the half-maximal inhibitory concentration (IC50) was 78.8 µM.

In assay [1], `COc1ccc(-c2cc(=O)c3c(O)cc(O[C@@H]4O[C@H](CO)[C@@H](O)[C@H](O)[C@H]4O)cc3o2)cc1O` returned a half-inhibitory concentration (IC50) of 21.8 µM.

The compound `C[C@@H]1O[C@@H](OC[C@H]2O[C@@H](Oc3c(-c4ccc(O)c(O)c4)oc4cc(O)cc(O)c4c3=O)[C@H](O)[C@@H](O)[C@@H]2O)[C@H](O)[C@H](O)[C@H]1O` [RUTIN] came in with a 50% inhibitory concentration (IC50) in assay [1] of 2.16 µM.

With `COc1ccc(-c2oc3c(CC=C(C)C)c(O)cc(O)c3c(=O)c2O)cc1` [ICARITIN], the IC50 in assay [1] was 64.5 µM.

The compound `COc1ccc([C@@H]2CC(=O)c3c(O)cc(O[C@@H]4O[C@H](CO)[C@@H](O)[C@H](O)[C@H]4O)cc3O2)cc1O` gave a half-inhibitory concentration (IC50) in [1] of 4.74 µM.

As to `COc1ccc([C@@H]2CC(=O)c3c(O)cc(O[C@@H]4O[C@H](CO[C@@H]5O[C@@H](C)[C@H](O)[C@@H](O)[C@H]5O)[C@@H](O)[C@H](O)[C@H]4O)cc3O2)cc1O` [HESPERIDIN], in assay [1], the IC50 came to 19.2 µM.

Regarding `O=C(O)[C@H]1O[C@@H](Oc2cc3oc(-c4ccccc4)cc(=O)c3c(O)c2O)[C@H](O)[C@@H](O)[C@@H]1O` [BAICALIN], the IC50 in assay [2] was determined as 3.55 µM.
